# Patent publication US20040087571A1, “Methods of using CCR1 antagonists as immunomodulatory agents” (Pfizer Inc, priority 2002, published 2004)
row,Compound,melting point
1,"NC(=O)[C@H](Cc1ccccc1)C[C@H](O)[C@H](Cc1ccccc1)NC(=O)c1cnc2c(F)c(F)ccc2c1 [Example 273, 7,8-Difluoro-quinoline-3-carboxylic acid (1(S)-benzyl-4(R)-carbamoyl-2(S)-hydroxy-5-phenyl-pentyl)-amide]",233 to 235 °C
2,"CNC(=O)[C@H](CC(C)C)C[C@H](O)[C@H](CC1CCC(F)(F)CC1)NC(=O)c1cnc2ccccc2n1 [Example 108, Quinoxaline-2-carboxylic acid [1(S)-(4,4-difluoro-cyclohexylmethyl)-2(S)-hydroxy-6-methyl-4(R)-methylcarbamoyl-heptyl]-amide]",95 to 98 °C
3,"CNC(=O)[C@H](CC(C)C)C[C@H](O)[C@H](Cc1ccc(OCc2ccccc2)cc1)NC(=O)c1cnc2ccccc2c1 [Example 40, Quinoline-3-carboxylic acid [1(S)-(4-benzyloxy-benzyl)-2(S)-hydroxy-6-methyl-4(R)-methylcarbamoyl-heptyl]-amide]",178 to 179 °C
4,"CNC(=O)[C@H](CC(C)C)C[C@H](O)[C@H](Cc1ccc(O)cc1)NC(=O)c1cnc2ccccc2c1 [Example 44, Quinoline-3-carboxylic acid [2(S)-hydroxy-1(S)-(4-hydroxy-benzyl)-6-methyl-4(R)-methylcarbamoyl-heptyl]-amide]",220.5 to 222.5 °C
5,"CC(C)(O)CC[C@H](C[C@H](O)[C@H](Cc1ccc(F)c(F)c1)NC(=O)c1cnc2ccccc2n1)C(=O)NO [Example 322, Quinoxaline-2-carboxylic acid [1(S)-(3,4-difluoro-benzyl)-2(S),7-dihydroxy-4(R)-hydroxycarbamoyl-7-methyl-octyl]-amide]",150 to 153 °C

# Further lines, results first:
row,melting point,Compound
1,110 to 120 °C,"CC(C)(O)CC[C@H](C[C@H](O)[C@H](Cc1ccc(F)c(F)c1)NC(=O)c1cnc2ccccc2n1)C(N)=O [Example 323, Quinoxaline-2-carboxylic acid [4(R)-carbamoyl-1(S)-(3,4-difluoro-benzyl)-2(S),7-dihydroxy-7-methyl-octyl]-amide]"
2,268 to 269 °C,"NC(=O)[C@@H](C[C@H](O)[C@H](Cc1ccccc1)NC(=O)c1cnc2ccccc2n1)C1(O)C2CCCC1CCC2 (stereo partly drawn) [Example 296, Quinoxaline-2-carboxylic acid [1(S)-benzyl-4(S)-carbamoyl-2(S)-hydroxy-4-(9-hydroxy-bicyclo[3.3.1]non-9-yl)-butyl]-amide]"
3,221 to 222 °C,"CC1CC(C)CC([C@@H](C[C@H](O)[C@H](Cc2ccccc2)NC(=O)c2cnc3ccccc3n2)C(N)=O)C1 (stereo partly drawn) [Example 210, Quinoxaline-2-carboxylic acid [1(S)-benzyl-4(R)-carbamoyl-4-(3,5-dimethyl-cyclohexyl)-2(S)-hydroxy-butyl]-amide]"
4,133 to 134 °C,"O=C(N[C@@H](Cc1ccccc1)[C@@H](O)C[C@H](C(=O)NO)C1(O)C2CC3CC(C2)CC1C3)c1cnc2ccccc2n1 (stereo partly drawn) [Example 297, Quinoxaline-2-carboxylic acid [1(S)-benzyl-2(S)-hydroxy-4(S)-(2-hydroxy-adamantan-2-yl)-4-hydroxycarbamoyl-butyl]-amide]"
5,206 to 207 °C,"NC(=O)[C@@H](C[C@H](O)[C@H](Cc1ccccc1)NC(=O)c1cnc2ccccc2n1)C1(O)C2CC3CC(C2)CC1C3 (stereo partly drawn) [Example 295, Quinoxaline-2-carboxylic acid [1(S)-benzyl-4(S)-carbamoyl-2(S)-hydroxy-4-(2-hydroxy-adamantan-2-yl)-butyl]-amide]"
6,118 to 123 °C,"CC1(C)CCC(O)([C@H](C[C@H](O)[C@H](Cc2ccccc2)NC(=O)c2cnc3ccccc3n2)C(=O)NO)CC1 [Example 305, Quinoxaline-2-carboxylic acid [1(S)-benzyl-2(S)-hydroxy-4(S)-hydroxycarbamoyl-4-(1-hydroxy-4,4-dimethyl-cyclohexyl)-butyl]-amide]"
